Results as given in patent publication US8883856B2, “Compositions and methods for the treatment of inflammatory diseases using topoisomerase inhibitors” (priority 2000, dated 2014).
Like-named read-outs stand apart in the source and are kept apart here.

Legend:
proteoglycan gene = assay: Proteoglycan gene expression in chondrocytes; type: cell-based, calf
Excerpt: This assay measures the levels of RNA for the two metalloproteinases, collagenase and stromelysin. Over-expression of these genes results in excessive synthesis and secretion of these two enzymes from articular chondrocytes and may represent part of the pathophysiology of rheumatoid arthritis. Agents that inhibit over-expression of collagenase and stromelysin can be antiarthritc agents. […] Proteoglycan gene expression is part of the normal physiology of chondrocytes.
Primary chondrocyte culture was freshly isolated from calf cartilage. The cells were plated (at 2.5×10^6/mL) in 100×20 mm culture dishes and incubated in Ham's F12 medium containing 5% fetal bovine serum (FBS) overnight at 37° C. The cells were starved with serum-free medium overnight. The cells were pretreated with camptothecin at concentrations of 10^−6 M, 10^−7 M and 10^−8 M for 6 hours. Then IL-1 (20 ng/mL) was added to each plate and the plates were incubated for an additional 18 hours. Total RNA was isolated by the acidified guanidine isothiocyanate method and subjected to electrophoresis on a denatured gel. Denatured RNA samples (15 ug) were analyzed by gel electrophoresis in a 1% denaturing gel, transferred to a nylon membrane, and hybridized respectively with the ^32P-labelled collagenase cDNA probe, ^32P-labelled stromelycin cDNA probe, ^32P-labelled proteoglycan cDNA probe and ^32P-labelled glyceraldehyde phosphate dehydrogenase (PAGDH) cDNA. The PAGDH levels acted as an internal standard to ensure roughly equal loading. The experimental results on X-ray films were scanned and analyzed with HP ScanJet.

[1] = tested on: smooth muscle cells (A7r5 rat embryonic thoracic aorta); assay: MTT proliferation/cytotoxicity assay, smooth muscle cells; type: cell-based; details: read-out: inhibitory concentration that gave 50% effect on proliferation (IC50), smooth muscle cells
Experimental: (§1) Proliferation was determined using the MTT proliferation/cytotoxicity assay.
(§2) On day one, 1500-2000 smooth muscle cells (A7r5 rat embryonic thoracic aorta) or synoviocytes (HIG.82 rabbit) were plated per well on a 96-well plate, leaving the first column free of cells (blank). The plate was placed back into the 37° C., CO2 incubator. The following day camptothecin was added at various concentrations. No drugs were added to the first column (blank) and the second column (untreated column) for control. The cells were exposed for 24, 48, and 72 hours. At the end of the exposure period, 50 μl of dimethylthiazol diphenyltetrazolium bromide salt (MTT) dissolved in media was added and allowed to incubate for 4 hours at 37° C. The medium was then aspirated and 200 μl of dimethyl sulfoxide was added. The plate was agitated for 30 minutes and the absorbance read at 562 nm. The optical density measurement was converted to number of cells using a standard plot of optical density with known number of cells and cell viability was expressed as % growth (this value is the % of the control cells).

[2] = tested on: synoviocytes (HIG.82 rabbit); assay: MTT proliferation/cytotoxicity assay, synoviocytes; type: cell-based; details: Oryctolagus cuniculus, read-out: inhibitory concentration that gave 50% effect on proliferation (IC50), synoviocytes
Experimental: as §1, §2

neutrophils = assay: Cytoplasmic DNA fragmentation in neutrophils (Cell death detection ELISA); type: cell-based, human
Excerpt: The inflammation associated with many forms of arthritis is thought to arise from the presence of large numbers of immune cells, such as neutrophils, in the synovial joints of humans. The extended inflammation associated with crystal induced arthritis arises from the interaction of neutrophils with crystals in the synovial joint. One reason the extended duration of the inflammation in this disease may be due to the inhibition of neutrophil apoptosis by crystals. This inhibition may result in the neutrophils remaining in the joint for extended periods. Compounds that overcome this crystal induced suppression of neutrophil apoptosis therefore allow the more rapid clearance of these cells from the joint with the appropriate abatement of inflammation. The process of apoptosis involves the endonuclease driven cleavage of DNA into fragments which may be visualized as a ladder of bands in an agarose gel electrophoresis experiment. Other assays that may be used include caspase 3 quantitation or measurements of cytoplasmic DNA concentration. […] Agents that inhibit caspase activation levels or reduce cytoplasmic DNA are pro-survival (potentially inflammatory) and agents that promote are pro-apoptotic and anti-inflammatory. The use of these methods and their role in neutrophil affected inflammation is described in detail in Tudan et al. J Rheumatol. 27 p 2463-72. 2000.
Methods: Agarose gel banding/laddering of 180 base pairs: Neutrophils were separated from fresh human blood by standard methods (dextran sedimentation and ficoll paque centrifugation) and suspended in buffer at a concentration of 1×10^6 cells/ml. The cells were then incubated with crystals of calcium pyrophosphate dihydrate (CPPD) for 1 hours at 37° C. The cells were then incubated with or without camptothecin (0.1 uM) for 4 hours at 37° C. Neutrophil aliquots (1×10^6 cells) from different conditions were resuspended in 480 μl of lysis buffer (0.6% SDS, 10 mM Tris, 1 mM EDTA (pH 7.0)) and after vigorous mixing were allowed to sit on ice for 20 min after addition of 120 μl of 5M NaCl. In caspase 3 and DNA fragmentation assays a milder detergent (Triton) was used to lyse only the plasma membrane of the cells so that cytoplasmic contents (caspase 3 or DNA fragments) could be assayed. Samples were sedimented at 14,000 rpm at 4° C. for 20 min. The pellet was dried and resuspended in phenol:chloroform. Four hundred fifty μl of the upper phase was added to a new tube, which was then charged with 950 μl of […] and held at −20° C. for 10 min. The DNA was sedimented at 14,000 rpm (4° C.) and carefully washed in 75% ethanol without disturbing the pellet. The DNA was dried at 37° C. and then resuspended in 20 μl sample buffer (50% TBE with 1 μl of 1 ng/ml RNase A (Pharmacia)). […]

Structure (SMILES) | proteoglycan expression (proteoglycan gene) | IC50 ([1]; A7R5, 48 hours exposure) [µM] | IC50 ([2]; 48 hours exposure) [µM] | proteoglycan expression (proteoglycan gene; 1×10^−7 M) | IC50 ([1]; A7R5, 48 h) [µM] | IC50 ([2]; 48 h) [µM] | cytoplasmic DNA fragments in neutrophils (neutrophils)
CC1(C)CCC2=C(O1)c1ccccc1C(=O)C2=O [beta-lapachone] | without excessive inhibition | 6.3 | 5.6 | – | – | – | –
CC[C@@]1(O)C(=O)OCc2c1cc1n(c2=O)Cc2cc3ccccc3nc2-1 [camptothecin] | – | – | – | without excessive inhibition | 1.6 | 0.065 | increased the cytoplasmic levels of DNA fragments
COc1cccc2c1C(=O)c1c(O)c3c(c(O)c1C2=O)C[C@@](O)(C(=O)CO)C[C@@H]3O[C@H]1C[C@H](N)[C@H](O)[C@H](C)O1 [doxorubicin] | – | 0.6 | 0.1 | – | – | – | significant increase in cytoplasmic DNA
COc1cc([C@@H]2c3cc4c(cc3[C@@H](O[C@@H]3O[C@@H]5CO[C@@H](C)O[C@H]5[C@H](O)[C@H]3O)[C@H]3COC(=O)[C@H]23)OCO4)cc(OC)c1O [etoposide] | – | ~15 | ~15 | – | – | – | significant increase in cytoplasmic DNA
CC1=CC(=O)c2ccccc2C1=O [menadione] | without excessive inhibition | 8.2 | 15 | – | – | – | –
CC1=CC(=O)c2c(O)cccc2C1=O [plumbagin] | – | 2.6 | 3.6 | – | – | – | –
